# Where a name gives a salt, the structure may show the parent alone.
# Tested on: arachidonic acid
# Test: Arachidonic Acid Antagonism Assay (AAAA)
# Format: in vivo, mouse (Charles River male CF-1)
# Settings: mice; 100 mg/kg; LD50 of sodium arachidonate
# Description: While not necessary to determine arachidonic acid antagonism, the above assay has been modified as follows: Charles River male CF-1 mice weighing […] are treated IV with the test compound dissolved in 1.0% Tween-80 and 0.1% hydrochloric acid in distilled water. 0 2 ml total volume. Fifteen minutes later sodium arachidonate (90% pure) in physiological (normal) […] is injected into the tail vein. The LD50 is measured using the Spearman-Karber method with a log dose interval of 0.05 (N-6). Compounds which elevate the LD50 outside of the 95% confidence interval of the control LD50 are considered to be "active".
row,Compound,% of Control LD50 [%]
1,CCN(CC)c1cc(N2CCN(C(=O)[C@@]3(O)CC[C@H]4[C@@H]5CCC6=CC(=O)CC[C@]6(C)[C@H]5CC[C@@]43C)CC2)nc(N(CC)CC)n1 [Example 57],124

# Same assay, conditions: mice; IV, 15 min before sodium arachidonate; outside 95% confidence interval of control LD50
row,Compound,arachidonic acid antagonism (elevation of LD50 of arachidonic acid)
1,"C[C@]12C=CC(=O)C=C1CC[C@@H]1[C@@H]2[C@@H](O)C[C@@]2(C)[C@H]1CC[C@]2(O)C(=O)CN1CCN(c2ccccn2)CC1 [Example 25, 11β,17α-dihydroxy-21-[4-(2-pyridinyl)-1-piperazinyl]-pregna-1,4-diene-3,20-dione dihydrochloride]",demonstrate arachidonic acid antagonism
2,"C[C@]12CCC(=O)C=C1CC[C@@H]1C2=CC[C@@]2(C)[C@H]1CC[C@]2(O)C(=O)CN1CCN(Cc2ccccn2)CC1 [Example 54, 17α-hydroxy-21-[4-(2-pyridinylmethyl)-1-piperazinyl]-pregna-4,9(11)-diene-3,20-dione(E)-2-butenedioate 1:1 salt]",demonstrate arachidonic acid antagonism
3,"C[C@]12CCC(=O)C=C1CC[C@@H]1[C@@H]2[C@H](O)C[C@@]2(C)[C@H]1CC[C@]2(O)C(=O)CN1CCN(c2ccc(F)cc2)CC1 [Example 29, 21-[4-(4-fluorophenyl)-1-piperazinyl]-11α,17α-dihydroxypregn-4-ene-3,20-dione dihydrochloride]",demonstrate arachidonic acid antagonism
4,"CN1CCN(c2cc(N3CCN(CC(=O)[C@@]4(O)CC[C@H]5[C@@H]6CCC7=CC(=O)CC[C@]7(C)C6=CC[C@@]54C)CC3)nc(N3CCN(C)CC3)n2)CC1.CS(=O)(=O)O.O [Example 19, 17α-Hydroxy-21-[4-[2,6-bis(4-methyl 1 piperazinyl)-4-pyrimidinyl]-1-piperazinyl]pregna-4,9(11)-diene-3,20-dione methanesulfonate hydrate]",demonstrate arachidonic acid antagonism
5,"CCN(CC)c1cc(N2CCN(CC(=O)[C@@]3(O)CC[C@H]4[C@@H]5CCC6=CC(=O)CC[C@]6(C)[C@H]5CC[C@@]43C)CC2)nc(N(CC)CC)n1 [Example 53, 21-[4-[2,-bis(diethylamino)-4-pyrimidinyl]-1-piperazinyl]-17α-hydroxypregn-4-ene-3,20-dione]",demonstrate arachidonic acid antagonism
6,CCN(CC)c1cc(N2CCN(C(=O)[C@@]3(O)CC[C@H]4[C@@H]5CCC6=CC(=O)CC[C@]6(C)[C@H]5CC[C@@]43C)CC2)nc(N(CC)CC)n1 [Example 57],demonstrate arachidonic acid antagonism
7,"C[C@]12CC(=O)[C@H]3[C@@H](CCC4=CC(=O)CC[C@@]43C)[C@@H]1CC[C@@H]2C(=O)CN1CCN(c2ccccn2)CC1.Cl.O [Example 45, 21-[4-(2-pyridinyl)-1-piperazinyl]pregn-4-ene-3,11,20-trione hydrochloride hydrate]",demonstrate arachidonic acid antagonism
8,"C[C@]12C=CC(=O)C=C1CC[C@@H]1C2=CC[C@@]2(C)[C@H]1CC[C@]2(O)C(=O)CN1CCN(c2cc(N3CCCC3)nc(N3CCCC3)n2)CC1.Cl.Cl.O [Example 74, 17α-hydroxy-21-[4-[2,6-di-(1-pyrrolidinyl)-4-pyrimidinyl]-1-piperazinyl]pregna-1,4,9(11)-triene-3,20-dione dihydrochloride hydrate]",demonstrate arachidonic acid antagonism
9,"COc1ccc(CCN(CC(=O)[C@@]2(O)CC[C@H]3[C@@H]4CCC5=CC(=O)CC[C@]5(C)C4=CC[C@@]32C)Cc2ccc(N(C)C)cc2)cc1OC [Example 51, 17α-hydroxy-21-[[2-(3,4-dimethoxyphenyl)ethyl]-4-(dimethylamino)phenyl]methyl]amino]pregna-4,9(11)-3,20-dione hydrochloride]",demonstrate arachidonic acid antagonism
10,"C=CCNc1nc(NCC=C)nc(N2CCN(CC(=O)[C@@]3(O)CC[C@H]4[C@@H]5CCC6=CC(=O)CC[C@]6(C)C5=CC[C@@]43C)CC2)n1.Cl.Cl.O [Example 60, 17α-hydroxy-21-[4-[4,6-bis(2-propenylamino)-1,3,5-triazin-2-yl]-1-piperazinyl]pregna-4,9(11)-diene-3,20-dione dihydrochloride hydrate]",demonstrate arachidonic acid antagonism
11,"CCN(CC)c1cc(N2CCN(CC(=O)[C@@]3(O)CC[C@H]4[C@@H]5CCC6=CC(=O)C=C[C@]6(C)C5=CC[C@@]43C)CC2)nc(N(CC)CC)n1.Cl.Cl.O [Example 75, 21-[4-[2,6-bis(diethylamino)-4-pyrimidinyl]-1-piperazinyl]-17α-hydroxypregna-1,4,9(11)-triene-3,20-dione dihydrochloride hydrate]",demonstrate arachidonic acid antagonism
12,"COc1cccc(N2CCN(CC(=O)[C@@]3(O)CC[C@H]4[C@@H]5CCC6=CC(=O)CC[C@]6(C)C5=CC[C@@]43C)CC2)n1.CS(=O)(=O)O [Example 22, 17α-hydroxy-21-[4-(6-methoxy-2-pyridinyl)-1-piperazinyl]pregna-4,9(11)-diene-3,20-dione monomethanesulfonate]",demonstrate arachidonic acid antagonism

# Tested on: angiogenesis
# Test: fertile egg or chick embryo assay of Folkman (inhibition of angiogenesis / tumor growth)
# Format: in vivo
# Settings: chick embryo; 50 μg/10 μl in the presence of heparin
# Description: According to this procedure compounds which are considered to be "active" (i.e, antiangiogenic) give an avascular zone of 4 mm or greater in some embryos when tested at 50 μg/10 μl in the presence of 50 μg/10 μ of heparin.
row,Compound,% of Embryos with 4 mm or Greater A vascular Zone [%]
1,C[C@]12CCC(=O)C=C1CC[C@@H]1[C@@H]2C(=O)C[C@@]2(C)[C@H]1CC[C@]2(O)C(=O)CN1CCN(c2ccccn2)CC1 [Example 20],72
2,"COc1ccccc1N1CCN(CC(=O)[C@@]2(O)CC[C@H]3[C@@H]4CCC5=CC(=O)CC[C@]5(C)[C@H]4CC[C@@]32C)CC1.Cl.Cl.O [Example 41, 17α-hydroxy-21-[4-(2-methoxyphenyl)-1-piperazinyl]-pregn-4-ene-3,20-dione dihydrochloride hydrate]",80
3,"C[C@H]1C[C@H]2[C@@H]3CC[C@H]4CC(=O)CC[C@]4(C)C3=CC[C@]2(C)[C@@]1(O)C(=O)CN1CCN(c2ccccn2)CC1.Cl.Cl.O [Example 44, 17α-hydroxy-16β-methyl-21-[4-(2-pyridinyl)-1-piperazinyl]-5α-pregn-9(11)-ene-3,20-dione dihydrochloride hydrate]",75

# Same assay, conditions: chick embryo; 50 μg/10 μl with heparin; avascular zone 4 mm or greater
row,Compound,inhibition of angiogenesis
1,"C[C@]12CC[C@@H](O)C[C@H]1CC[C@@H]1[C@@H]2C(=O)C[C@@]2(C)[C@H]1CC[C@]2(O)C(=O)CN1CCN(c2ccccn2)CC1 [Example 99, 3α,17α-dihydroxy-21-[4-(2-pyridinyl)-1-piperazinyl]-5β-pregnane-11,20-dione dihydrochloride hydrate]",demonstrate inhibition of angiogenesis
2,"COc1ccc(CCNCC(=O)[C@@]2(O)CC[C@H]3[C@@H]4C[C@H](C)C5=CC(=O)C=C[C@]5(C)[C@H]4[C@@H](O)C[C@@]32C)cc1OC [Example 34, 11β,17α-dihydroxy-21-[[2-(3,4-dimethoxyphenyl)ethyl]-amino]-6α-methylpregna-1,4-diene-3,20-dione hydrochloride]",demonstrate inhibition of angiogenesis
3,C[C@]12CCC(=O)C=C1CC[C@@H]1[C@@H]2C(=O)C[C@@]2(C)[C@H]1CC[C@]2(O)C(=O)CN1CCN(c2ccccn2)CC1 [Example 20],demonstrate inhibition of angiogenesis
4,"CCN(CC)c1cc(N2CCN(CC(=O)[C@@]3(O)CC[C@H]4[C@@H]5C[C@H](C)C6=CC(=O)C=C[C@]6(C)C5=CC[C@@]43C)CC2)nc(N(CC)CC)n1 [Example 63, 21-[4-[2,6-bis(diethylamino)-4-pyrimidinyl]-1-piperazinyl]-17α-hydroxy-6α-methylpregna-1,4,9(11)-triene-3,20-dione(E)-2-butenedioate (1:1) salt]",demonstrate inhibition of angiogenesis
5,"COc1ccc(N2CCN(CC(=O)[C@@]3(O)CC[C@H]4[C@@H]5CCC6=CC(=O)CC[C@]6(C)[C@H]5[C@H](OC(=O)CC(C)(C)C)C[C@@]43C)CC2)cc1 [Example 32, 11α,17α-dihydroxy-21-[4-(4-methoxyphenyl)-1-piperazinyl]pregn-4-ene-3,20-dione 11-(3,3-dimethyl 1-butyrate) dihydrochloride]",demonstrate inhibition of angiogenesis
6,"COc1ccc(N2CCN(CC(=O)[C@@]3(O)CC[C@H]4[C@@H]5C[C@H](C)C6=CC(=O)C=C[C@]6(C)[C@H]5[C@@H](O)C[C@@]43C)CC2)cc1 [Example 33, 11β,17α-dihydroxy-21-[4-(4-methoxyphenyl)-1-piperazinyl]-6α-methylpregna-1,4-diene-3,20-dione dihydrochloride]",demonstrate inhibition of angiogenesis
7,"C[C@]12CCC(=O)C=C1CC[C@@H]1C2=CC[C@@]2(C)[C@H]1CC[C@]2(O)C(=O)CN1CCN(c2cc(N3CCCC3)nc(N3CCCC3)n2)CC1 [Example 64, 17α-hydroxy-21-[4-[2,6-bis(1-pyrrolidinyl)-4-pyrimidinyl]-1-piperazinyl]pregna-4,9(11)-diene-3,20-dione (E)-2-butenedioate (1:1) salt]",demonstrate inhibition of angiogenesis
8,"C[C@]12C[C@@H](O)[C@H]3[C@@H](CCC4=CC(=O)CC[C@@]43C)[C@@H]1CC[C@@H]2C(=O)CN1CCN(c2ccccn2)CC1.Cl.Cl [Example 36, 11α-hydroxy-21-[4-(2-pyridinyl)-1-piperazinyl]pregn-4-ene-3,20-dione, dihydrochloride]",demonstrate inhibition of angiogenesis
9,"C[C@]12CCC(=O)C=C1CC[C@@H]1C2=CC[C@@]2(C)[C@H]1CC[C@]2(O)C(=O)CN1CCN(C(=O)c2ccco2)CC1 [Example 6B, 17α-Hydroxy-21-[4-(2-furonylcarbonyl)-1-piperazinyl]-pregna-4,9(11)-diene-3,20-dione]",demonstrate inhibition of angiogenesis
